Reference: patent US20240239861A1, “GLUCAGON-RECEPTOR SELECTIVE POLYPEPTIDES AND METHODS OF USE THEREOF” (i2O Therapeutics, Inc., priority 2016, published 2024)
Where a SMILES comes first, the peptide text is derived from it. [ ]: non-standard residue; d: D form. Aib = CC(C)(N)C(=O)O

Experiments:
[1] = target: human GCGR (Homo sapiens, UniProt P47871); assay: Peptide-receptor mediated cAMP accumulation (LANCE Ultra cAMP) in CHO-K1 cells transfected with human GCGR; format: cell-based; settings: Table 3
[2] = target: human GLP-1R (Homo sapiens, UniProt P43220); assay: Peptide-receptor mediated cAMP accumulation (LANCE Ultra cAMP) in CHO-K1 cells transfected with human GLP-1R; format: cell-based; settings: hGLP1 pEC50 (cAMP mean (n = 3): 11 point curve starting at 1 nM, Table 3)
Sequence of human GLP-1R (P43220 24-463): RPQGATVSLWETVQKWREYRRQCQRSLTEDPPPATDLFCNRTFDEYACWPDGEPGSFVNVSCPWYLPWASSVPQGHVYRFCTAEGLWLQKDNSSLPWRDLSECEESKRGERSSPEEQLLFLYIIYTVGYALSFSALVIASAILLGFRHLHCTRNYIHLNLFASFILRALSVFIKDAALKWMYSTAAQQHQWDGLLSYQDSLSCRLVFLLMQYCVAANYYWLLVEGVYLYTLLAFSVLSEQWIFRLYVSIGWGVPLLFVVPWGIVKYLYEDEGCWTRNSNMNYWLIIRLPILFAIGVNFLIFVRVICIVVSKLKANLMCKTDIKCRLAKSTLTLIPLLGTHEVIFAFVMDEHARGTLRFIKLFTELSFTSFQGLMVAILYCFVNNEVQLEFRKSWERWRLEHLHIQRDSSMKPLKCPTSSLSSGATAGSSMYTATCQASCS

Sequence of human GCGR (P47871 26-477): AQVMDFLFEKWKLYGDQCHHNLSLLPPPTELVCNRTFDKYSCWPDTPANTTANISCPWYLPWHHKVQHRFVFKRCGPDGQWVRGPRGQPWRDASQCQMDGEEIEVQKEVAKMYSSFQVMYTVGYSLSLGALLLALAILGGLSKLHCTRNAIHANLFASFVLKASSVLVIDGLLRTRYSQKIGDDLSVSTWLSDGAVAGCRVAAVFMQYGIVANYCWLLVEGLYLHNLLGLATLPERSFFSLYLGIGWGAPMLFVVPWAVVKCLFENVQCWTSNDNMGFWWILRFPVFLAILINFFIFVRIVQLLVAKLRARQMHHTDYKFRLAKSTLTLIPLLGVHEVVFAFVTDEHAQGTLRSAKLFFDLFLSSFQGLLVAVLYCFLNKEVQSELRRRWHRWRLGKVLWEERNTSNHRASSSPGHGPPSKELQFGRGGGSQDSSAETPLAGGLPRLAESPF

Structure (SMILES)	EC50 [1]	EC50 [2]
CC(C)C[C@H](NC(=O)[C@H](CCCCN)NC(=O)C(C)(C)NC(=O)[C@H](CC(=O)O)NC(=O)[C@H](CC(C)C)NC(=O)[C@H](Cc1ccc(O)cc1)NC(=O)[C@H](CCCCN)NC(=O)[C@H](CO)NC(=O)[C@H](Cc1ccc(O)cc1)NC(=O)[C@H](CC(=O)O)NC(=O)[C@H](CO)NC(=O)[C@@H](NC(=O)[C@H](Cc1ccccc1)NC(=O)[C@@H](NC(=O)CNC(=O)[C@H](Cc1c[nH]cn1)NC(=O)[C@H](CO)NC(=O)[C@@H](N)Cc1ccc(O)cc1)[C@@H](C)O)[C@@H](C)O)C(=O)N[C@@H](C)C(=O)N[C@@H](CCC(N)=O)C(=O)N[C@@H](CCC(=O)O)C(=O)N[C@@H](Cc1ccccc1)C(=O)N[C@H](C(=O)NC(C)(C)C(=O)N[C@@H](Cc1c[nH]c2ccccc12)C(=O)N[C@@H](CC(C)C)C(=O)N[C@@H](CCC(=O)O)C(=O)N[C@@H](CC(=O)O)C(=O)N[C@@H](CCC(=O)O)C(=O)N1CCC[C@H]1C(=O)N[C@@H](CO)C(=O)N[C@@H](CO)C(=O)NCC(=O)N[C@@H](C)C(=O)N1CCC[C@H]1C(=O)N1CCC[C@H]1C(=O)N1CCC[C@H]1C(=O)N[C@@H](CO)C(=O)O)C(C)C [Compound A78] (H-YSHGTFTSDYSKYLD[Aib]KLAQEFV[Aib]WLEDEPSSGAPPPS-OH; N-terminus assumed)	15.8 pM	> 1000 pM
CC(C)C[C@H](NC(=O)[C@H](Cc1ccc(O)cc1)NC(=O)[C@H](CCCCN)NC(=O)[C@H](CO)NC(=O)[C@H](Cc1ccc(O)cc1)NC(=O)[C@H](CC(=O)O)NC(=O)[C@H](CO)NC(=O)[C@@H](NC(=O)[C@H](Cc1ccccc1)NC(=O)[C@@H](NC(=O)CNC(=O)[C@H](Cc1c[nH]cn1)NC(=O)[C@H](CO)NC(=O)[C@@H](N)Cc1ccc(O)cc1)[C@@H](C)O)[C@@H](C)O)C(=O)N[C@@H](CC(=O)O)C(=O)NC(C)(C)C(=O)N[C@@H](CCCCN)C(=O)N[C@@H](CCC(=O)O)C(=O)N[C@@H](C)C(=O)N[C@@H](CCC(N)=O)C(=O)N[C@@H](CCC(=O)O)C(=O)N[C@@H](Cc1ccccc1)C(=O)N[C@H](C(=O)NC(C)(C)C(=O)N[C@@H](Cc1c[nH]c2ccccc12)C(=O)N[C@@H](CC(C)C)C(=O)N[C@@H](CCC(=O)O)C(=O)N[C@@H](CC(=O)O)C(=O)N[C@@H](CCC(=O)O)C(=O)N1CCC[C@H]1C(=O)N[C@@H](CO)C(=O)N[C@@H](CO)C(=O)NCC(=O)N[C@@H](C)C(=O)N1CCC[C@H]1C(=O)N1CCC[C@H]1C(=O)N1CCC[C@H]1C(=O)N[C@@H](CO)C(=O)O)C(C)C [Compound A79] (H-YSHGTFTSDYSKYLD[Aib]KEAQEFV[Aib]WLEDEPSSGAPPPS-OH; N-terminus assumed)	63.1 pM	> 1000 pM
CC(C)C[C@H](NC(=O)[C@H](Cc1ccc(O)cc1)NC(=O)[C@H](CCCCN)NC(=O)[C@H](CO)NC(=O)[C@H](Cc1ccc(O)cc1)NC(=O)[C@H](CC(=O)O)NC(=O)[C@H](CO)NC(=O)[C@@H](NC(=O)[C@H](Cc1ccccc1)NC(=O)[C@@H](NC(=O)CNC(=O)[C@H](CCC(N)=O)NC(=O)[C@H](CO)NC(=O)[C@@H](N)Cc1ccc(O)cc1)[C@@H](C)O)[C@@H](C)O)C(=O)N[C@@H](CC(=O)O)C(=O)N[C@@H](CO)C(=O)N[C@@H](C)C(=O)N[C@@H](CCCNC(=N)N)C(=O)N[C@@H](C)C(=O)N[C@@H](CCC(N)=O)C(=O)N[C@@H](CCC(=O)O)C(=O)N[C@@H](Cc1ccccc1)C(=O)N[C@H](C(=O)N[C@@H](CCCCN)C(=O)N[C@@H](Cc1c[nH]c2ccccc12)C(=O)N[C@@H](CC(C)C)C(=O)N[C@@H](CCC(=O)O)C(=O)N[C@@H](CC(=O)O)C(=O)N[C@@H](CCC(=O)O)C(=O)N1CCC[C@H]1C(=O)N[C@@H](CCCCN)C(=O)N[C@@H](CO)C(=O)N[C@@H](CCCCN)C(=O)N[C@@H](C)C(=O)N1CCC[C@H]1C(=O)N1CCC[C@H]1C(=O)N1CCC[C@H]1C(=O)N[C@@H](CO)C(=O)O)C(C)C [Compound A82] (H-YSQGTFTSDYSKYLDSARAQEFVKWLEDEPKSKAPPPS-OH; N-terminus assumed)	10 pM	> 1000 pM
CC(C)C[C@H](NC(=O)[C@H](Cc1ccc(O)cc1)NC(=O)[C@H](CCCCN)NC(=O)[C@H](CO)NC(=O)[C@H](Cc1ccc(O)cc1)NC(=O)[C@H](CC(=O)O)NC(=O)[C@H](CO)NC(=O)[C@@H](NC(=O)[C@H](Cc1ccccc1)NC(=O)[C@@H](NC(=O)CNC(=O)[C@H](CCC(N)=O)NC(=O)[C@H](CO)NC(=O)[C@@H](N)Cc1c[nH]c2ccccc12)[C@@H](C)O)[C@@H](C)O)C(=O)N[C@@H](CC(=O)O)C(=O)NC(C)(C)C(=O)N[C@@H](CCCCN)C(=O)N[C@@H](C)C(=O)N[C@@H](C)C(=O)N[C@@H](CCC(N)=O)C(=O)N[C@@H](CCC(=O)O)C(=O)N[C@@H](Cc1ccccc1)C(=O)N[C@H](C(=O)NC(C)(C)C(=O)N[C@@H](Cc1c[nH]c2ccccc12)C(=O)N[C@@H](CC(C)C)C(=O)N[C@@H](CCC(=O)O)C(=O)N[C@@H](CC(=O)O)C(=O)N[C@@H](CCC(=O)O)C(=O)N1CCC[C@H]1C(=O)N[C@@H](CO)C(=O)N[C@@H](CO)C(=O)NCC(=O)N[C@@H](C)C(=O)N1CCC[C@H]1C(=O)N1CCC[C@H]1C(=O)N1CCC[C@H]1C(=O)N[C@@H](CO)C(=O)O)C(C)C [Compound A92] (H-WSQGTFTSDYSKYLD[Aib]KAAQEFV[Aib]WLEDEPSSGAPPPS-OH; N-terminus assumed)	20 pM	> 1000 pM

The next lines start with the values.

EC50 [1]	EC50 [2]	Structure (SMILES)
10 pM	> 1000 pM	CC(C)C[C@H](NC(=O)[C@H](Cc1ccc(O)cc1)NC(=O)[C@H](CCCCN)NC(=O)[C@H](CO)NC(=O)[C@H](Cc1ccc(O)cc1)NC(=O)[C@H](CC(=O)O)NC(=O)[C@H](CO)NC(=O)[C@@H](NC(=O)[C@H](Cc1ccccc1)NC(=O)[C@@H](NC(=O)CNC(=O)[C@H](CCC(N)=O)NC(=O)[C@H](CO)NC(=O)[C@@H](N)Cc1ccc(O)cc1)[C@@H](C)O)[C@@H](C)O)C(=O)N[C@@H](CC(=O)O)C(=O)N[C@@H](CO)C(=O)N[C@@H](C)C(=O)N[C@@H](CCCNC(=N)N)C(=O)N[C@@H](C)C(=O)N[C@@H](CCC(N)=O)C(=O)N[C@@H](CCC(=O)O)C(=O)N[C@@H](Cc1ccccc1)C(=O)N[C@H](C(=O)N[C@@H](CCCCN)C(=O)N[C@@H](Cc1c[nH]c2ccccc12)C(=O)N[C@@H](CC(C)C)C(=O)N[C@@H](CCC(=O)O)C(=O)N[C@@H](CC(=O)O)C(=O)N[C@@H](CCC(=O)O)C(=O)N1CCC[C@H]1C(=O)N[C@@H](CCCCN)C(=O)N[C@@H](CO)C(=O)N[C@@H](CCCCN)C(=O)N[C@@H](CO)C(=O)N1CCC[C@H]1C(=O)N1CCC[C@H]1C(=O)N1CCC[C@H]1C(=O)N[C@@H](CO)C(=O)O)C(C)C [Compound A81] (H-YSQGTFTSDYSKYLDSARAQEFVKWLEDEPKSKSPPPS-OH; N-terminus assumed)
63.1 pM	> 1000 pM	CC(C)C[C@H](NC(=O)[C@H](Cc1ccc(O)cc1)NC(=O)[C@H](CCCCN)NC(=O)[C@H](CO)NC(=O)[C@H](Cc1ccc(O)cc1)NC(=O)[C@H](CC(=O)O)NC(=O)[C@H](CO)NC(=O)[C@@H](NC(=O)[C@H](Cc1ccccc1)NC(=O)[C@@H](NC(=O)CNC(=O)[C@H](Cc1c[nH]cn1)NC(=O)[C@H](CO)NC(=O)[C@@H](N)Cc1ccc(O)cc1)[C@@H](C)O)[C@@H](C)O)C(=O)N[C@@H](CC(=O)O)C(=O)N[C@@H](CO)C(=O)N[C@@H](C)C(=O)N[C@@H](CCCNC(=N)N)C(=O)N[C@@H](C)C(=O)N[C@@H](CCC(N)=O)C(=O)N[C@@H](CCC(=O)O)C(=O)N[C@@H](Cc1ccccc1)C(=O)N[C@H](C(=O)N[C@@H](CCCCN)C(=O)N[C@@H](Cc1c[nH]c2ccccc12)C(=O)N[C@@H](CC(C)C)C(=O)N[C@@H](CCC(=O)O)C(=O)N[C@@H](CC(=O)O)C(=O)N[C@@H](CCC(=O)O)C(=O)N1CCC[C@H]1C(=O)N[C@@H](CCCCN)C(=O)N[C@@H](CO)C(=O)N[C@@H](CCCCN)C(=O)N[C@@H](CO)C(=O)N1CCC[C@H]1C(=O)N1CCC[C@H]1C(=O)N1CCC[C@H]1C(=O)N[C@@H](CO)C(=O)O)[C@@H](C)O [Compound A83] (H-YSHGTFTSDYSKYLDSARAQEFTKWLEDEPKSKSPPPS-OH; N-terminus assumed)
398 pM	> 1000 pM	CC(C)C[C@H](NC(=O)[C@H](Cc1ccc(O)cc1)NC(=O)[C@H](CCCCN)NC(=O)[C@H](CO)NC(=O)[C@H](Cc1ccc(O)cc1)NC(=O)[C@H](CC(=O)O)NC(=O)[C@H](CO)NC(=O)[C@@H](NC(=O)[C@H](Cc1ccccc1)NC(=O)[C@@H](NC(=O)CNC(=O)[C@H](Cc1c[nH]cn1)NC(=O)[C@H](CO)NC(=O)[C@@H](N)Cc1ccc(O)cc1)[C@@H](C)O)[C@@H](C)O)C(=O)N[C@@H](CC(=O)O)C(=O)N[C@@H](CO)C(=O)N[C@@H](C)C(=O)N[C@@H](CCCNC(=N)N)C(=O)N[C@@H](C)C(=O)N[C@@H](CCC(N)=O)C(=O)N[C@@H](CCC(=O)O)C(=O)N[C@@H](Cc1ccccc1)C(=O)N[C@H](C(=O)N[C@@H](CCCCN)C(=O)N[C@@H](Cc1c[nH]cn1)C(=O)N[C@@H](CC(C)C)C(=O)N[C@@H](CCC(=O)O)C(=O)N[C@@H](CC(=O)O)C(=O)N[C@@H](CCC(=O)O)C(=O)N1CCC[C@H]1C(=O)N[C@@H](CCCCN)C(=O)N[C@@H](CO)C(=O)N[C@@H](CCCCN)C(=O)N[C@@H](CO)C(=O)N1CCC[C@H]1C(=O)N1CCC[C@H]1C(=O)N1CCC[C@H]1C(=O)N[C@@H](CO)C(=O)O)C(C)C [Compound A84] (H-YSHGTFTSDYSKYLDSARAQEFVKHLEDEPKSKSPPPS-OH; N-terminus assumed)
